Entries after “also recorded” stand apart in the source; their conditions may differ.
What was measured:
Type in all cases: cell-based
[1] = tested on: RPE cells; assay: Reversal of sulindac protection of RPE cells against UV damage by PKC/PKG inhibitors; details: for reversal of the protective effect of sulindac against UV damage: 1200 mj UVB, rottlerin at 3 uM
Protocol: (§1) The ability of sulindac to protect RPE cells against oxidative stress was determined by analyzing cellular viability following treatment of cultured ARPE19 cells with sulindac, before exposing the cells to conditions leading to oxidative damage. Following 24 hr treatment of the cells with sulindac, ARPE19 cells were exposed to either a range of tert-Butyl Hydrogen peroxide (t-BHP) concentrations for 24 hrs or a range of intensities of ultraviolet B (UVB) to induce oxidative stress. To test the involvement of PKC, the non-specific PKC blocker chelerythrine and also specific blockers for individual isoforms of PKC were used. The possible role of PKG was investigated by the addition of PKG inhibitor Rp-8-Br-PET-CGMPs along with sulindac. Western blotting was used to detect induction of late phase markers of preconditioning.
The sulindac protective effect on RPE cells is due to ischemic preconditioning. The IPC response in tissues is often initiated by ROS and/or NO which activates mitochondrial PKC epsilon as part of a complex mechanism that also involves the opening of the mitochondrial ATP sensitive K+ channel and preventing the formation of the mitochondrial permeability transition pore. We have looked more closely at the possible role of PKC in the protection of RPE cells by sulindac, as was shown previously in cardiac studies. […] Based on previous preconditioning studies it seemed reasonable to look specifically at PKC epsilon. […] In the previous cardiac study it was also shown that two late stage preconditioning markers, iNOS and Hsp27 were induced by sulindac.
The role of PKG in the sulindac protective effect was examined. The above results support previous studies that agents that can initiate an ischemic preconditioning response may have therapeutic value in delaying the onset, or slowing the progression, of retinal diseases arising from ischemia and oxidative damage. […] Both sulindac and sildenafil are known to be inhibitors of PDE5, which results in increasing the level of cGMP and activation of PKG. […]

[2] = tested on: RPE cells; assay: Protection of RPE cells against UVB radiation damage, cell viability
Protocol: as §1
It seemed reasonable to investigate whether sulindac could also protect other cells, such as RPE cells, which are susceptible to oxidative damage and known to have a strong ischemic preconditioning (IPC) response. Two types of oxidative stress were used in these experiments, either exposure of the RPE cells to an oxidizing agent such as TBHP, or exposure to UV light. In these experiments the RPE cells were pretreated for 24 hours with varying concentrations of sulindac, sulindac sulfone or sildenafil as described in the Figures. […] To determine whether this protective effect was due to the NSAID activity of sulindac, sulindac sulfone, a metabolite, of sulindac that has no NSAID activity was tested in place of sulindac for its UV protective effect. […] It should also be noted that sulindac sulfone is not a substrate for the Msr system which eliminates the possibility that the sulindac protective effect was related to its being a substrate for the Msr enzymes and functioning as a catalytic anti-oxidant in an ROS scavenging system.

[3] = tested on: ARPE-19 cells; assay: Protection of ARPE-19 cells against H2O2 induced oxidative stress, cell viability; details: incubated 24 hrs, then 50 μM H2O2
Protocol: (§2) For protecting RPE cells from oxidative stress induced damage we used the NSAID, sulindac. For our experiment we used ARPE-19 cells cultured in 96 well plates. The cells were preincubated with sulindac for 48 hours prior to exposing them to oxidative stress. Our oxidizing agents of choice were TBHP and Hydrogen peroxide (H2O2). We also stressed the ARPE-19 cells with 24 hours of Hypoxia treatment. After the stress the cellular viability was evaluated using the MTS assay. This assay uses a tetrazolium compound that is bioreduced into a formazan product in the cells. The signal generated (color intensity) is directly proportional to the number of viable (metabolically active) cells in the wells.
The next experiment was designed to determine if preincubation with sulindac is also effective in protecting ARPE-19 cells against oxidative stress induced by treatment of retina cells with H2O2. Cells were incubated with sulindac for 24 hrs and then exposed to 50 μM H2O2.

[4] = tested on: ARPE-19 cells; assay: Protection of ARPE-19 cells against 24 hr hypoxic stress, cell viability; details: 24 hours preincubation, 24 hr hypoxia
Protocol: as §2
To test the ability of sulindac; in protecting against a variety of stresses ARPE-19 cells were exposed to 24 hours of hypoxic stress following sulindac preincubation. The ARPE-19 cells were grown in 96 well plates inside a hypoxia chamber having only 5% oxygen for 24 hours to induce hypoxic stress. Prior to exposing the cells to hypoxia, one set of cells was incubated 24 hours with sulindac.

[5] = tested on: iNOS; assay: Western blot of late phase preconditioning marker iNOS in RPE cells; details: RPE cells pretreated 48 hours
Protocol: as §1
(§3) The sulindac protective effect on RPE cells is due to ischemic preconditioning. The IPC response in tissues is often initiated by ROS and/or NO which activates mitochondrial PKC epsilon as part of a complex mechanism that also involves the opening of the mitochondrial ATP sensitive K+ channel and preventing the formation of the mitochondrial permeability transition pore. We have looked more closely at the possible role of PKC in the protection of RPE cells by sulindac, as was shown previously in cardiac studies. […]

[6] = tested on: ARPE-19 cells; assay: Protection of ARPE-19 cells against TBHP oxidative stress, cell viability (MTS)
Protocol: as §2
(§4) ARPE-19 cells were preincubated with different concentrations of sulindac ranging from 50 uM to 400 μM.
as §1
It seemed reasonable to investigate whether sulindac could also protect other cells, such as RPE cells, which are susceptible to oxidative damage and known to have a strong ischemic preconditioning (IPC) response. Two types of oxidative stress were used in these experiments, either exposure of the RPE cells to an oxidizing agent such as TBHP, or exposure to UV light. […]

[7] = tested on: ARPE-19 cells; details: human, 48 h
Protocol: as §2, §4

[8] = tested on: Hsp27; assay: Western blot of late phase preconditioning marker Hsp27 in RPE cells; details: RPE cells pretreated 48 hours
Protocol: as §1, §3

## O=c1c2nc(Br)n([C@@H]3O[C@@H]4CO[P@@](O)(=S)O[C@H]4[C@H]3O)c2nc2[nH]c(-c3ccccc3)cn12 [Rp-8-Br-PET-CGMPs]
[1]; 250 nM, 24 hours with sulindac
  inhibition of the sulindac protective effect on RPE cells exposed to UV damage: > 50%

## COc1ccc2c(c[n+](C)c3c4cc5c(cc4ccc23)OCO5)c1OC [chelerythrin]
[1]
  reversal of the protective effect of sulindac against UV damage: significantly reversed

## CC(=O)c1c(O)c(C)c(O)c(Cc2c(O)c3c(c(C(=O)/C=C/c4ccccc4)c2O)OC(C)(C)C=C3)c1O [rottlerin]
[1]
  reversal of the protective effect of sulindac against UV damage: no reversal

## CCCc1nn(C)c2c(=O)[nH]c(-c3cc(S(=O)(=O)N4CCN(C)CC4)ccc3OCC)nc12 [sildenafil]
[2]; 20 uM, 1200 mj UVB
  protection against UV damage: can also protect RPE cells against UV damage similar to sulindac

## CC1=C(CC(=O)O)c2cc(F)ccc2/C1=C\c1ccc(S(C)(=O)=O)cc1 [sulindac sulfone]
[3]
  protection against H2O2 induced oxidative stress: only partial protection
[2]; 200 uM, 24 hours pretreatment
  protection against UV damage: complete protection
[4]
  protection against hypoxia induced stress (cell viability): partial protection

## CC1=C(CC(=O)O)c2cc(F)ccc2/C1=C\c1ccc([S+](C)[O-])cc1 (centres unmarked) [sulindac]
[5]
  induction of iNOS: significant induction
[3]
  protection against H2O2 induced oxidative stress: capable of protecting retina cells against H2O2 induced oxidative stress
[6]; 24 hrs pretreatment, t-BHP 24 hrs
  protection against t-BHP insult, survival: protected them against both types of insult and enhanced survival
[6]; ARPE-19 cells preincubated with 50 uM to 400 μM sulindac, 48 hours, MTS assay
  protection against loss of cell viability due to oxidative stress by TBHP: protected the ARPE-19 cells against loss of cell viability
[6]; sulindac 125 and 200 uM, 24 hours pretreatment, varying TBHP
  protection against TBHP damage (cell viability): essentially complete protections
[2]; 500 uM, 24 hours pretreatment, 1200 mj UV
  protection against UV exposure: 50%
[2]; 24 hrs pretreatment, range of UVB intensities
  protection against UVB insult, survival: protected them against both types of insult and enhanced survival
[7]
  sulindac concentration toxic to ARPE-19 cells (acute reduction of cell viability): ≥ 200 μM
[4]
  protection against hypoxia induced stress (cell viability): significant protection; also recorded: higher viability
[8]
  induction of Hsp27: significant induction
